# Test results as given in PMC11676115, “A New Heteroleptic Zn(II) Complex with Schiff Bases Sensitizes Triple-Negative Breast Cancer Cells to Doxorubicin and Paclitaxel” (Pharmaceutics, 2024).
# How the values were obtained:
# MDA-MB-231 (TNBC) cells = experiment: MTT cell viability assay, MDA-MB-231; format: cell-based, human
# From the text: (§1) For in vitro assays, three tumor cell lines were used: MCF7 (ER-positive BC), maintained in Roswell Park Memorial Institute medium (RPMI-1640, Gibco®, Grand Island, NY, USA); MDA-MB-453 (HER2-positive BC), grown in Iscove’s Modified Dulbecco’s Medium (IMDM, Gibco®); and MDA-MB-231 (TNBC), grown in Leibovitz’s L-15 Medium (L15, Gibco®). Additionally, three non-tumor cell lines were used: HUVEC (human umbilical vein endothelial cells), cultured in (RPMI-1640); HFF (human fibroblast), cultured in Dulbecco’s Modified Eagle Medium: Nutrient Mixture—High Glucose (DMEM/F12-High Glucose, Gibco®); and MCF10A (human mammary epithelial cell line), also cultured in DMEM/F12 supplemented with 10 μg/mL of insulin (Gibco®), 0.25 μg/mL of hydrocortisone (Sigma-Aldrich®, Saint Louis, MO, USA), and […] of Epidermal Growth Factor (EGF) (Gibco®). All culture media were supplemented with 10% fetal bovine serum (FBS) (Gibco®) and 50 μg/mL of gentamicin (Cultilab®, Campinas, SP, Brazil). The culture flasks were kept in an incubator at 37 °C under an atmosphere of 5% CO2, except for the MDA-MB 231 lineage, which was grown without CO2 gas exchange. All cells were purchased from the American Type Culture Collection (ATCC, Manassas, VA, USA).
# (§2) To analyze cell viability, the test based on the reduction of tetrazolium 3-(4,5-dimethylthiazol-2yl)-2,5-diphenyl bromide (MTT) was used. HUVEC cell lines (1.0 × 10^4 cells/well); HFF (8.0 × 10^3 cells/well); MCF10A (1.2 × 10^4 cells/well); MDA-MB-453 and MCF7 (5.0 × 10^3 cells/well) and MDA-MB-231 (1.5 × 10^4 cells/well) were seeded in 96-well plates in complete culture medium. […] All assays were performed in triplicate. Wells containing only cells and medium (untreated cells) and wells containing cells treated with DMSO diluent were used as experimental controls (considered as 100% cell viability). After incubation, MTT (5 mg/mL-diluted in phosphate-buffered saline—PBS) was added along with complete culture medium at 10% v/v and maintained for 4 h. Then, 200 μL of DMSO was added to each well and the reading was carried out at 560 nm using the Multiskan FC Microplate Photometer reader (Thermo Fisher Scientific®, Waltham, MA, USA).
# (§3) The data obtained were analyzed using GraphPad Prism 8.0 software. Three independent triplicate assays were conducted and means and standard deviations were calculated. Normality was assessed using the Shapiro–Wilk test and Student’s t-test and one-way ANOVA, followed by Tukey’s post-test, were applied to compare treatments. Differences were considered significant when p < 0.05. The IC50 values were calculated by non-linear regression and the selectivity index (SI) for MDA-MB-231 cells was established by the ratio between the IC50 of each non-tumor cell line and the IC50 of MDA-MB-231. SI values ≥ 2 were considered significant.
# [1] = tested on: MCF10A (human mammary epithelial cell line); experiment: MTT cell viability assay, MCF10A; format: cell-based; design: key to SI (Non-Tumor/MDA-MB231) MCF10A: NS: nonselective; HS: highly selective
# From the text: as §1
# (§4) To analyze cell viability, the test based on the reduction of tetrazolium 3-(4,5-dimethylthiazol-2yl)-2,5-diphenyl bromide (MTT) was used. […] Then, 200 μL of DMSO was added to each well and the reading was carried out at 560 nm using the Multiskan FC Microplate Photometer reader (Thermo Fisher Scientific®, Waltham, MA, USA).
# as §3, with “Differences were considered significant when p < 0.05.” left out, “SI values ≥ 2 were considered significant.” left out
# [2] = tested on: MDA-MB-453 (HER2-positive BC) cells; experiment: MTT cell viability assay, MDA-MB-453; format: cell-based, human
# Description: All culture media were supplemented with 10% fetal bovine serum (FBS) (Gibco®) and 50 μg/mL of gentamicin (Cultilab®, Campinas, SP, Brazil). […] All cells were purchased from the American Type Culture Collection (ATCC, Manassas, VA, USA).
# as §2, with “used.” for “used. HUVEC cell lines (1.0 × 10^4 cells/well); HFF (8.0 × 10^3 cells/well); MCF10A (1.2 × 10^4 cells/well); MDA-MB-453 and MCF7 (5.0 × 10^3 cells/well) and MDA-MB-231 (1.5 × 10^4 cells/well) were seeded in 96-well plates in complete culture medium.”
# as §3, with “The IC50 values were calculated by non-linear regression and the selectivity index (SI) for MDA-MB-231 cells was established by the ratio between the IC50 of each non-tumor cell line and the IC50 of MDA-MB-231.” left out
# [3] = tested on: MCF7 (ER-positive BC) cells; experiment: MTT cell viability assay, MCF7; format: cell-based, human
# From the text: as §1, §2, §3
# HFF (human fibroblast) = experiment: MTT cell viability assay, HFF; format: cell-based
# Description: (§5) For in vitro assays, three tumor cell lines were used: MCF7 (ER-positive BC), maintained in Roswell Park Memorial Institute medium (RPMI-1640, Gibco®, Grand Island, NY, USA); MDA-MB-453 (HER2-positive BC), grown in Iscove’s Modified Dulbecco’s Medium (IMDM, Gibco®); and MDA-MB-231 (TNBC), grown in Leibovitz’s L-15 Medium (L15, Gibco®). […]
# as §4
# as §3, with “Differences were considered significant when p < 0.05.” left out, “SI values ≥ 2 were considered significant.” left out
# [4] = tested on: HUVEC (human umbilical vein endothelial cells); experiment: MTT cell viability assay, HUVEC; format: cell-based
# Description: as §5, §4
# as §3, with “Differences were considered significant when p < 0.05.” left out, “SI values ≥ 2 were considered significant.” left out
# Solubility in solvents = format: physicochemical
Structure (SMILES),IC50 (MDA-MB-231 (TNBC) cells; 48 h),"cytotoxicity in words, MDA-MB-231 (MDA-MB-231 (TNBC) cells; 48 h)",IC50 ([2]; 48 h),"cytotoxicity in words, MDA-MB-453 ([2]; 48 h)",IC50 ([3]; 48 h),"concentration from which cell viability decreased, MCF7 ([3]; 48 h)","cytotoxicity in words, MCF7 ([3]; 48 h)",solubility in MeOH (Solubility in solvents),"IC50 (MDA-MB-231 (TNBC) cells; Homo sapiens, MDA-MB-231, 48 h)","IC50 ([2]; Homo sapiens, MDA-MB-453, 48 h)","IC50 ([3]; Homo sapiens, MCF7, 48 h)",also measured
"CCNC(=NN=C(C)c1ccccn1)[S][Zn][O]C(=NN=C(C)c1ccccn1)c1ccco1 [Complex 1, [Zn(Hz)(atc–Et)]]",0.24 µM,cytotoxic,0.32 µM,cytotoxic,9.43 µM,≥ 0.25 µM,proliferated after treatment with the lowest concentrations,,,,,"sensitivity in words, MCF10A ([1]; 48 h, MTT, compared with HUVEC and HFF): most sensitive; IC50 ([1]; 48 h, MTT, non-tumor cell line): < 0.01 µM; SI (Non-Tumor/MDA-MB231) MCF10A ([1]; IC50 in MCF10A divided by IC50 of MDA-MB-231): NS; IC50 (HFF (human fibroblast); 48 h, MTT, non-tumor cell line): 4.57 µM; SI (Non-Tumor/MDA-MB231) HFF (HFF (human fibroblast); IC50 in HFF divided by IC50 of MDA-MB-231): 19.04; IC50 ([4]; 48 h, MTT, non-tumor cell line): 2.52 µM; SI (Non-Tumor/MDA-MB231) HUVEC ([4]; IC50 in HUVEC divided by IC50 of MDA-MB-231): 10.50"
"CC(=NN=C([O][Zn+])c1ccco1)c1ccccn1.CC(=NNC(N)=O)c1ccccn1.[Cl-] [Complex 4, [Zn(Hz)(Hsc)]Cl]",,,,,,,,pretty soluble,,,,
"[Cl-].[Cl-].[Zn+2] [ZnCl2, zinc chloride]",> 156 µM,,< 0.01 µM,,> 156 µM,,,,,,,
"CC(=NNC(=O)c1ccco1)c1ccccn1 [Hhz, 2-Acetylpyridine-furanoylhidrazone]",,,,,,≥ 6.25 µM,,,30.3 µM,4.11 µM,> 156 µM,"concentration from which cytotoxicity was observed, MDA-MB-231 (MDA-MB-231 (TNBC) cells; 48 h): ≥ 1250 nM; concentration from which cell viability decreased, MDA-MB-453 ([2]; 48 h): ≥ 6.25 µM"
"CC(=NNC(N)=O)c1ccccn1.CCNC(=NN=C(C)c1ccccn1)[S][Zn+].[Cl-] [Complex 3, [Zn(atc–Et)(Hsc)]Cl]",,,,,,,,pretty soluble,,,,
"CCNC(=S)N/N=C(\C)c1ccccn1 [Hatc-Et, 2-Acetylpyridine-4-ethyl-3-thiosemicarbazone]",,most sensitive,,most sensitive,,,most resistant,,0.27 µM,< 0.01 µM,> 156 µM,
